According to US20060069132A1, “Azolecarboxamide herbicides” (priority 2004, published 2006):

Tested on: windgrass
Assay: Test C postemergence herbicide test
Assay type: in vivo, Apera spica-venti
Settings: Postemergence; 500 g ai/ha; scale 0 to 100, 0 no effect, 100 complete control
Procedure, shortened: (§1)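 Visual rating, 0 (no effect) to 100 (complete control), vs. controls at 12–14 d in greenhouse. Postemergence: 1–4-leaf plants, 2–18 cm. Paddy: flooded, barnyardgrass at 2-leaf stage.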

Compared with `C#CCOc1cccc(NC(=O)c2cc(C(C)(C)C)nn2CC)c1` [Compound 411], `CCc1nn(C(C)(C)C)nc1C(=O)Nc1cccc(C(=O)NC2CC2)c1` [Compound 417] is lower in “Plant response rating, Windgrass” value: 65 for the first, 55 for the second.

In the case of `CCNC(=O)c1cccc(NC(=O)c2nn(C(C)(C)CC)nc2CC)c1` [Compound 376], the “Plant response rating, Windgrass” value is reported as 65.

Same assay, conditions: postemergence, 125 g ai/ha; scale 0 to 100

Going from `C#CCNC(=O)c1cccc(NC(=O)c2nn(C(C)(C)C)nc2CC)c1` [Compound 380] to `CCNC(=O)c1cccc(NC(=O)c2nn(C(C)(C)CC)nc2CC)c1` [Compound 376], the “Plant response rating, Windgrass” value falls from 60 to 40.

Going from `C#CCOc1cccc(NC(=O)c2cc(C(C)(C)C)nn2CC)c1` [Compound 411] to `CCc1nn(C(C)(C)C)nc1C(=O)Nc1cccc(C(=O)NC2CC2)c1` [Compound 417], the “Plant response rating, Windgrass” value falls from 55 to 40.

Same assay, conditions: postemergence; 62 g ai/ha; scale 0 to 100

Compared with `C#CCNC(=O)c1cccc(NC(=O)c2nn(C(C)(C)C)nc2CC)c1` [Compound 380], `CCNC(=O)c1cccc(NC(=O)c2nn(C(C)(C)CC)nc2CC)c1` [Compound 376] is lower in “Plant response rating, Windgrass” value: 45 for the first, 40 for the second.

`C#CCOc1cccc(NC(=O)c2cc(C(C)(C)C)nn2CC)c1` [Compound 411] and `CCc1nn(C(C)(C)C)nc1C(=O)Nc1cccc(C(=O)NC2CC2)c1` [Compound 417] are the same in “Plant response rating, Windgrass” value: 40 for the first, 40 for the second.

Tested on: winter barley
Assay: Test C postemergence herbicide test
Assay type: in vivo, Hordeum vulgare
Settings: Postemergence, 500 g ai/ha; scale 0 to 100
Procedure, shortened: as §1

Compared with `C#CCOc1cccc(NC(=O)c2cc(C(C)(C)C)nn2CC)c1` [Compound 411], `CCc1nn(C(C)(C)C)nc1C(=O)Nc1cccc(C(=O)NC2CC2)c1` [Compound 417] is lower in “Barley, Winter plant response rating” value: 40 for the first, 35 for the second.

With `CCNC(=O)c1cccc(NC(=O)c2nn(C(C)(C)CC)nc2CC)c1` [Compound 376] the “Barley, Winter plant response rating” value was 40.

Same assay, conditions: Postemergence; 250 g ai/ha; scale 0 to 100, 0 no effect, 100 complete control

`C#CCNC(=O)c1cccc(NC(=O)c2nn(C(C)(C)C)nc2CC)c1` [Compound 380] and `CCNC(=O)c1cccc(NC(=O)c2nn(C(C)(C)CC)nc2CC)c1` [Compound 376] are the same in “Plant response rating, Barley, Winter” value: 30 for the first, 30 for the second.

First: C#CCOc1cccc(NC(=O)c2cc(C(C)(C)C)nn2CC)c1 [Compound 411]
Second: CCc1nn(C(C)(C)C)nc1C(=O)Nc1cccc(C(=O)NC2CC2)c1 [Compound 417]
The “Plant response rating, Barley, Winter” value of the first is higher: 35 for the first, 30 for the second.

Same assay, conditions: postemergence, 125 g ai/ha; scale 0 to 100 (0 no effect, 100 complete control)

`C#CCNC(=O)c1cccc(NC(=O)c2nn(C(C)(C)C)nc2CC)c1` [Compound 380] and `CCNC(=O)c1cccc(NC(=O)c2nn(C(C)(C)CC)nc2CC)c1` [Compound 376] are the same in “Plant response rating, Barley, Winter” value: 20 for the first, 20 for the second.

Compared with `C#CCOc1cccc(NC(=O)c2cc(C(C)(C)C)nn2CC)c1` [Compound 411], `CCc1nn(C(C)(C)C)nc1C(=O)Nc1cccc(C(=O)NC2CC2)c1` [Compound 417] is lower in “Plant response rating, Barley, Winter” value: 35 for the first, 20 for the second.

Same assay, conditions: postemergence; 31 g ai/ha; scale 0 to 100

For `C#CCNC(=O)c1cccc(NC(=O)c2nn(C(C)(C)C)nc2CC)c1` [Compound 380], the “Plant response rating, Barley, Winter” value was 10.

Same assay, conditions: postemergence; 62 g ai/ha; scale 0 to 100 (0 no effect, 100 complete control)

`C#CCNC(=O)c1cccc(NC(=O)c2nn(C(C)(C)C)nc2CC)c1` [Compound 380] and `CCNC(=O)c1cccc(NC(=O)c2nn(C(C)(C)CC)nc2CC)c1` [Compound 376] are the same in “Plant response rating, Barley, Winter” value: 20 for the first, 20 for the second.

First: C#CCOc1cccc(NC(=O)c2cc(C(C)(C)C)nn2CC)c1 [Compound 411]
Second: CCc1nn(C(C)(C)C)nc1C(=O)Nc1cccc(C(=O)NC2CC2)c1 [Compound 417]
The “Plant response rating, Barley, Winter” value of the first is higher: 30 for the first, 20 for the second.

Tested on: canarygrass
Assay: Test C postemergence herbicide test
Assay type: in vivo, Phalaris minor
Settings: Postemergence; 250 g ai/ha; scale 0 to 100, 0 no effect, 100 complete control
Procedure, shortened: as §1

First: C#CCNC(=O)c1cccc(NC(=O)c2nn(C(C)(C)C)nc2CC)c1 [Compound 380]
Second: CCNC(=O)c1cccc(NC(=O)c2nn(C(C)(C)CC)nc2CC)c1 [Compound 376]
The “Plant response rating, Canarygrass” value of the first is lower: 45 for the first, 55 for the second.

Compared with `C#CCOc1cccc(NC(=O)c2cc(C(C)(C)C)nn2CC)c1` [Compound 411], `CCc1nn(C(C)(C)C)nc1C(=O)Nc1cccc(C(=O)NC2CC2)c1` [Compound 417] is lower in “Plant response rating, Canarygrass” value: 65 for the first, 45 for the second.

Same assay, conditions: Postemergence; 500 g ai/ha; scale 0 to 100, 0 no effect, 100 complete control

Going from `C#CCOc1cccc(NC(=O)c2cc(C(C)(C)C)nn2CC)c1` [Compound 411] to `CCc1nn(C(C)(C)C)nc1C(=O)Nc1cccc(C(=O)NC2CC2)c1` [Compound 417], the “Plant response rating, Canarygrass” value falls from 65 to 55.

With `CCNC(=O)c1cccc(NC(=O)c2nn(C(C)(C)CC)nc2CC)c1` [Compound 376] the “Plant response rating, Canarygrass” value was 65.

Same assay, conditions: postemergence, 125 g ai/ha; scale 0 to 100

First: C#CCNC(=O)c1cccc(NC(=O)c2nn(C(C)(C)C)nc2CC)c1 [Compound 380]
Second: CCNC(=O)c1cccc(NC(=O)c2nn(C(C)(C)CC)nc2CC)c1 [Compound 376]
The “Plant response rating, Canarygrass” value of the first is lower: 40 for the first, 50 for the second.

Compared with `C#CCOc1cccc(NC(=O)c2cc(C(C)(C)C)nn2CC)c1` [Compound 411], `CCc1nn(C(C)(C)C)nc1C(=O)Nc1cccc(C(=O)NC2CC2)c1` [Compound 417] is lower in “Plant response rating, Canarygrass” value: 60 for the first, 40 for the second.

Same assay, conditions: postemergence; 31 g ai/ha; scale 0 to 100

With `C#CCNC(=O)c1cccc(NC(=O)c2nn(C(C)(C)C)nc2CC)c1` [Compound 380] the “Plant response rating, Canarygrass” value was 30.

Same assay, conditions: postemergence; 62 g ai/ha; scale 0 to 100

Going from `C#CCNC(=O)c1cccc(NC(=O)c2nn(C(C)(C)C)nc2CC)c1` [Compound 380] to `CCNC(=O)c1cccc(NC(=O)c2nn(C(C)(C)CC)nc2CC)c1` [Compound 376], the “Plant response rating, Canarygrass” value rises from 40 to 45.

Going from `C#CCOc1cccc(NC(=O)c2cc(C(C)(C)C)nn2CC)c1` [Compound 411] to `CCc1nn(C(C)(C)C)nc1C(=O)Nc1cccc(C(=O)NC2CC2)c1` [Compound 417], the “Plant response rating, Canarygrass” value falls from 60 to 30.

Tested on: green foxtail
Assay: Test C postemergence herbicide test
Assay type: in vivo, Setaria viridis
Settings: Postemergence; 250 g ai/ha; scale 0 to 100, 0 no effect, 100 complete control
Procedure, shortened: as §1

`C#CCNC(=O)c1cccc(NC(=O)c2nn(C(C)(C)C)nc2CC)c1` [Compound 380] and `CCNC(=O)c1cccc(NC(=O)c2nn(C(C)(C)CC)nc2CC)c1` [Compound 376] are the same in “Plant response rating, Foxtail, Green” value: 60 for the first, 60 for the second.

Going from `C#CCOc1cccc(NC(=O)c2cc(C(C)(C)C)nn2CC)c1` [Compound 411] to `CCc1nn(C(C)(C)C)nc1C(=O)Nc1cccc(C(=O)NC2CC2)c1` [Compound 417], the “Plant response rating, Foxtail, Green” value falls from 65 to 60.

Same assay, conditions: Postemergence; 500 g ai/ha; scale 0 to 100, 0 no effect, 100 complete control

Compared with `C#CCOc1cccc(NC(=O)c2cc(C(C)(C)C)nn2CC)c1` [Compound 411], `CCc1nn(C(C)(C)C)nc1C(=O)Nc1cccc(C(=O)NC2CC2)c1` [Compound 417] is lower in “Plant response rating, Foxtail, Green” value: 70 for the first, 65 for the second.

`CCNC(=O)c1cccc(NC(=O)c2nn(C(C)(C)CC)nc2CC)c1` [Compound 376] was tested, and the “Plant response rating, Foxtail, Green” value was 65.

Same assay, conditions: postemergence, 125 g ai/ha; scale 0 to 100

`C#CCNC(=O)c1cccc(NC(=O)c2nn(C(C)(C)C)nc2CC)c1` [Compound 380] and `CCNC(=O)c1cccc(NC(=O)c2nn(C(C)(C)CC)nc2CC)c1` [Compound 376] are the same in “Plant response rating, Foxtail, Green” value: 60 for the first, 60 for the second.

Compared with `C#CCOc1cccc(NC(=O)c2cc(C(C)(C)C)nn2CC)c1` [Compound 411], `CCc1nn(C(C)(C)C)nc1C(=O)Nc1cccc(C(=O)NC2CC2)c1` [Compound 417] is lower in “Plant response rating, Foxtail, Green” value: 65 for the first, 55 for the second.

Same assay, conditions: postemergence; 62 g ai/ha; scale 0 to 100

Compared with `C#CCNC(=O)c1cccc(NC(=O)c2nn(C(C)(C)C)nc2CC)c1` [Compound 380], `CCNC(=O)c1cccc(NC(=O)c2nn(C(C)(C)CC)nc2CC)c1` [Compound 376] is lower in “Plant response rating, Foxtail, Green” value: 60 for the first, 40 for the second.

First: C#CCOc1cccc(NC(=O)c2cc(C(C)(C)C)nn2CC)c1 [Compound 411]
Second: CCc1nn(C(C)(C)C)nc1C(=O)Nc1cccc(C(=O)NC2CC2)c1 [Compound 417]
The “Plant response rating, Foxtail, Green” value of the first is higher: 60 for the first, 50 for the second.

Tested on: blackgrass
Assay: Test C postemergence herbicide test
Assay type: in vivo, Alopecurus myosuroides
Settings: Postemergence, 500 g ai/ha; scale 0 to 100
Procedure, shortened: as §1

Going from `C#CCOc1cccc(NC(=O)c2cc(C(C)(C)C)nn2CC)c1` [Compound 411] to `CCc1nn(C(C)(C)C)nc1C(=O)Nc1cccc(C(=O)NC2CC2)c1` [Compound 417], the “Blackgrass plant response rating” value falls from 70 to 60.

With `CCNC(=O)c1cccc(NC(=O)c2nn(C(C)(C)CC)nc2CC)c1` [Compound 376] the “Blackgrass plant response rating” value was 65.

Same assay, conditions: Postemergence; 250 g ai/ha; scale 0 to 100, 0 no effect, 100 complete control

Going from `C#CCNC(=O)c1cccc(NC(=O)c2nn(C(C)(C)C)nc2CC)c1` [Compound 380] to `CCNC(=O)c1cccc(NC(=O)c2nn(C(C)(C)CC)nc2CC)c1` [Compound 376], the “Plant response rating, Blackgrass” value falls from 55 to 50.

Compared with `C#CCOc1cccc(NC(=O)c2cc(C(C)(C)C)nn2CC)c1` [Compound 411], `CCc1nn(C(C)(C)C)nc1C(=O)Nc1cccc(C(=O)NC2CC2)c1` [Compound 417] is lower in “Plant response rating, Blackgrass” value: 65 for the first, 60 for the second.

Same assay, conditions: postemergence, 125 g ai/ha; scale 0 to 100

Going from `C#CCNC(=O)c1cccc(NC(=O)c2nn(C(C)(C)C)nc2CC)c1` [Compound 380] to `CCNC(=O)c1cccc(NC(=O)c2nn(C(C)(C)CC)nc2CC)c1` [Compound 376], the “Plant response rating, Blackgrass” value falls from 45 to 40.

First: C#CCOc1cccc(NC(=O)c2cc(C(C)(C)C)nn2CC)c1 [Compound 411]
Second: CCc1nn(C(C)(C)C)nc1C(=O)Nc1cccc(C(=O)NC2CC2)c1 [Compound 417]
The “Plant response rating, Blackgrass” value of the first is higher: 65 for the first, 50 for the second.

Same assay, conditions: postemergence; 31 g ai/ha; scale 0 to 100

With `C#CCNC(=O)c1cccc(NC(=O)c2nn(C(C)(C)C)nc2CC)c1` [Compound 380] the “Plant response rating, Blackgrass” value was 40.

Same assay, conditions: postemergence; 62 g ai/ha; scale 0 to 100

`C#CCNC(=O)c1cccc(NC(=O)c2nn(C(C)(C)C)nc2CC)c1` [Compound 380] and `CCNC(=O)c1cccc(NC(=O)c2nn(C(C)(C)CC)nc2CC)c1` [Compound 376] are the same in “Plant response rating, Blackgrass” value: 40 for the first, 40 for the second.

Going from `C#CCOc1cccc(NC(=O)c2cc(C(C)(C)C)nn2CC)c1` [Compound 411] to `CCc1nn(C(C)(C)C)nc1C(=O)Nc1cccc(C(=O)NC2CC2)c1` [Compound 417], the “Plant response rating, Blackgrass” value falls from 50 to 35.
